Experiments:
[1] = tested on: human peripheral blood mononuclear cells (PBMCs); test: IFNβ production in PBMCs treated with exosome-encapsulated or free STING agonist; format: cell-based; conditions: free STING agonists, human PBMCs overnight
Description: Exosome-encapsulated STING agonist and free STING agonist were tested for activity in human peripheral blood mononuclear cells (PBMCs). PBMCs were isolated from fresh human blood by centrifugation over a layer of Lymphoprep at 1000×g for 15 minutes. The resulting buffy coat was washed in PBS and counted. PBMCs were plated in 96-well U-bottom plates. Titrations of the exosome-encapsulated (Exo-STING agonist) or free STING agonist were prepared in a separate U-bottom plate to perform dose-response studies. The exosome-encapsulated or free STING agonist was added to the PBMCs and incubated at 37° C. overnight. General activation of PBMCs by the STING agonist was detected by measuring the amount of IFNβ in the supernatant. […] To understand which cell types in PBMCs are differentially affected by Exo-STING agonist, monocyte and dendritic cell activation was measured. […] Monocytes were robustly activated by the STING agonist alone with over 90% becoming activated at micromolar concentrations of the agonist. […]
HEK293SF cells overexpressing PTGFRN were grown in shake flasks and the resulting exosomes were purified by Optiprep™ density gradient ultracentrifugation as described in the Methods. […] Loading was quantified as described in Example 1. […] Activation of PBMCs by the STING agonists was detected by measuring the amount of IFNβ in the supernatant. […]

[2] = Tumor pharmacokinetics after intratumoral injection; format: in vivo, C57BL/6 mice; conditions: B16F10 tumor
Description: To examine the tumor pharmacokinetics of STING agonist, C57BL/6 mice were inoculated subcutaneously with 1×10^6 B16F10 murine melanoma cells (n=3 mice per group and time). Eight days post-inoculation, the tumors were injected intratumorally with 30 μg of free 3-3 cAIMPdFSH, 0.3 μg of free 3-3 cAIMPdFSH, or 0.3 μg 3-3 cAIMPdFSH loaded in PTGFRN-overexpressing exosomes. Five minutes, thirty minutes, two hours, 6 hours, 24 hours, and 48 hours after injection, tumors were excised and lysed with 6 volume of plasma. The concentration of 3-3 cAIMPdFSH was measured by LC-MS/MS, as described in Example 1. Free 3-3 cAIMPdFSH in both 30 μg and 0.3 μg was disappeared quickly from tumor, having half-life of around 10 minutes.

[3] = tested on: B16F10 tumor and stroma area; test: IFNβ in situ hybridization and CD8, F4/80 immunohistochemistry in B16F10 tumor sections; format: in vivo, C57BL/6 mice; conditions: 20 μg free
Description: Four groups of C57BL/6 mice (5 mice per group) were inoculated subcutaneously with 1×10^6 B16F10 tumor cells. Eight days post-inoculation the mice were injected intratumorally with dose of exosomes, 20 μg of free 3-3 cAIMPdFSH, 0.1 μg of free 3-3 cAIMPdFSH, or 0.1 μg of 3-3 cAIMPdFSH loaded in PTGFN-overexpressing exosomes (EXOSTING™). Half of the mice were injected again intratumorally at day 11 after the inoculation. Four- or 24-hours post-injection of each injection, the tumors were collected, cytokine levels were measured by in situ hybridization, and CD8 or F4/80 positive cells were counted by immunohistochemistry. Tumor area and stroma area were identified histologically. IFNβ gene expression levels in the tumor (FIG. 77A) and stroma (FIG. 77B) area were increased in the 20 μg free STING agonist and 0.1 μg EXOSTING™ groups at 4h after single dose. […] F4/80 positive cells were decreased in 20 μg free STING agonist group, but cells were recovered in 0.1 μg EXOSTING™ group (FIG. 78B).

Row | SMILES | IFNβ induction [1] | half-life in tumor ([2]; 0.3 μg free) | half-life in tumor ([2]; 30 μg free) | CD8 positive T cells [3] | F4/80 positive cells [3] | level of IFNβ in tumor and stroma area ([3]; 4h after second doses) | IFNβ gene expression in tumor and stroma area ([3]; 4h after single dose)
1 | Nc1ncnc2c1ncn2[C@@H]1O[C@@H]2COP(=O)(S)O[C@H]3[C@@H](F)[C@H](n4cnc5c(=O)[nH]cnc54)O[C@@H]3COP(O)(=S)O[C@H]2[C@H]1F (some centres unmarked) [3-3 cAIMPdFSH, 3′3′-cAIMPdFSH] | induced IFNβ to a similar extent | around 10 minutes | around 10 minutes | not increased | decreased | significantly decreased | increased
2 | Nc1ncnc2c1ncn2[C@@H]1O[C@@H]2COP(O)(=S)O[C@@H]3C(O)[C@@H](COP(O)(=S)O[C@H]2[C@H]1O)O[C@H]3n1cnc2c(N)ncnc21 (some centres unmarked) [ML RR-S2 CDA] | induced IFNβ to a similar extent | – | – | – | – | – | –
